Data: US7988952B2, “Delivery of drug esters through an inhalation route” (Alexza Pharmaceuticals, Inc., priority 2001, dated 2011)

What was measured:
[1] = Volatilization from halogen bulb; purity of the aerosol by reverse-phase HPLC; format: physicochemical; conditions: thermal vapor from coated aluminum foil on 300 watt halogen tube, 60 V 5-12 s or 90 V 2.5-3.5 s; HPLC at 225 nm
Protocol: A solution of drug in approximately 120 μL dichloromethane is coated on a 3.5 cm×7.5 cm piece of aluminum foil (precleaned with acetone). The dichloromethane is allowed to evaporate. The coated foil is wrapped around a 300 watt halogen tube (Feit Electric Company, Pico Rivera, Calif.), which is inserted into a glass tube sealed at one end with a rubber stopper. Running 60 V of alternating current (driven by line power controlled by a variac) through the bulb for 5-12 s or 90 V for 2.5-3.5 s affords thermal vapor (including aerosol), which is collected on the glass tube walls. (When desired, the system is flushed through with argon prior to volatilization.) Reverse-phase HPLC analysis with detection by absorption of 225 nm light is used to determine the purity of the aerosol.
Table 1, which follows, provides data from drugs volatilized using the above-recited general procedure.

[2] = Hydrolysis studies of drug esters in PBS solution (pH 7.5); format: physicochemical; conditions: PBS pH 7.5, room temperature, read-out: t1/2 for hydrolysis
Protocol: Drug ester (20 μL, 10 mM acetonitrile) is added to 1 mL PBS solution (pH 7.5) at room temperature. At intermittent time points, an aliquot of the resulting mixture is injected into an HPLC to obtain the ratio of drug ester to drug acid or drug alcohol. An Arrhenius plot of the data provides a t1/2 for hydrolysis.

[3] = Human serum hydrolysis studies of drug esters; format: in vitro ADME; conditions: 37° C., read-out: t1/2 for hydrolysis
Protocol: Human serum (2.34 mL) is placed in a test tube. To the serum is added 260 μL of a 10 mM solution of drug ester in acetonitrile. The tube is placed in a 37° C. incubator, and at various time points a 500 μL aliquot is removed. The aliquot is mixed with 500 μL methanol, and the mixture is vortex mixed and centrifuged. A sample of the supernatant is analyzed by HPLC obtain the ratio of drug ester to drug acid or drug alcohol. An Arrhenius plot of the data provides a t1/2 for hydrolysis.

| Compound | AEROSOL PURITY [1] [%] | half-life at 0.196 mM [2] [h] | half-life at 1 mM [3] [h] |
| --- | --- | --- | --- |
| CC(=O)Oc1ccc2c(c1OC(C)=O)-c1cccc3c1C(C2)N(C)CC3.Cl (stereo not drawn) [Apomorphine Diacetate-HCl] | 94 |  |  |
| CCOC(=O)Cc1c(C)n(C(=O)c2ccc(Cl)cc2)c2ccc(OC)cc12 [Indomethacin Ethyl Ester] | >99 |  |  |
| COC(=O)Cc1c(C)n(C(=O)c2ccc(Cl)cc2)c2ccc(OC)cc12 [Indomethacin Methyl Ester] | 99 |  |  |
| COc1ccc2c(c1)c(CC(=O)OCCN(C)C)c(C)n2C(=O)c1ccc(Cl)cc1 [Indomethacin Norcholine Ester] | 100 |  |  |
| CCOC(=O)C(C)c1cccc(C(=O)c2ccccc2)c1 (stereo not drawn) [Ketoprofen Ethyl Ester] | 99.65 | > 48 | 3.73 |
| COC(=O)C(C)c1cccc(C(=O)c2ccccc2)c1 (stereo not drawn) [Ketoprofen Methyl Ester] | 99 | > 48 | 2.4 |
| CC(C(=O)OCCN(C)C)c1cccc(C(=O)c2ccccc2)c1 (stereo not drawn) [Ketoprofen Norcholine Ester] | 100 |  |  |
| CCOC(=O)C1CCn2c(C(=O)c3ccccc3)ccc21 (stereo not drawn) [Ketorolac Ethyl Ester] | >99 |  |  |
| COC(=O)C1CCn2c(C(=O)c3ccccc3)ccc21 (stereo not drawn) [Ketorolac Methyl Ester] | 100 |  |  |
| CN(C)CCOC(=O)C1CCn2c(C(=O)c3ccccc3)ccc21 (stereo not drawn) [Ketorolac Norcholine Ester, 2-(N,N-Dimethylamino)Ethyl Ester of Ketorolac] | 100 |  |  |
| Apomorphine Diacetate | 96.9 |  |  |
